Measurements: patent publication US20160176924A1, “MODIFIED PEPTIDES AS POTENT INHIBITORS OF THE PSD-95/NMDA RECEPTOR INTERACTION” (priority 2008, published 2016)

Tests used:
[1] = biological target: T1, PDZ1-2 of PSD-95 (Homo sapiens, UniProt P78352, I195W); assay: Stopped-flow fluorimetry (fluorescence titration assay); type: binding
T1 construct: PDZ1-2 (residues 61-249) tandem; made in house; host or cells: E. coli BL21-DE3 pLysS
Description: The HIS-PDZ2 and HIS-PDZ1-2 expression constructs of PSD-95 were genetically manipulated to encode a tryptophan, (in position 51 of SEQ ID NO: 4 and position 145 in SEQ ID NO: 8, respectively) instead of isoleucine. Binding between PDZ2 and PDZ1-2 and peptide ligand 74 was then monitored and quantified, by measuring the fluorescence increase from this tryptophan upon ligand recognition. (excitation λ at 280 nm, emission λ>320 nm). Stopped-flow measurements were performed at 10° C. or 25° C. on an SX-20MV stopped-flow spectrometer (Applied Photophysics, Leatherhead, UK). The peptide, in varying amounts, was rapidly mixed with a constant amount of PDZ and the change in fluorescence was measured over time. The fluorescence versus time plots was fitted to a single or double exponential equation, from which one or two observed rate constants were obtained. Observed rate constants were then plotted against the concentration of the varied species and microscopic rate constants determined by fitting the data to the equation for a bimolecular association (Eq. 1)
kobs=((kon^2(n−[A]0)^2+koff^2+2konkoff(n+[A]0))^0.5 (Eq. 1) […]
The equilibrium dissociation constant Kd of the PDZ-peptide complex was calculated by the experimental determined kon and koff.

[2] = tested on: cultured cortical neurons; assay: Neuronal NMDA excitotoxicity assay (LDH release); type: cell-based, rat; conditions: 500 nM
From the text: When cultured cortical neurons are exposed to high concentrations of NMDA, an excitoxic cascade is initiated, which leads to cellular damage and ultimately neuronal cell death. Consequently, the cell membranes are destroyed, and cytoplasmic enzymes are released into the cell surroundings. The extent of this neuronal cell death can be quantified by measuring the release of cytoplasmic lactate dehydrogenase (LDH) enzyme into the cell medium. The compounds of interest and control compound (3) are investigated with respect to their abilities to attenuate NMDA-mediated toxicity. Compounds that are active in this assay are both membrane permeable, and can prevent ex vivo excitotoxicity, which are important properties for therapeutics towards excitotoxicity mediated diseases.
Cortical neurons were surgically removed from rats (e.g. E21) and then cultured for 7-9 days in vitro in Neurobasal A medium with B-27 supplement (each supplied by Invitrogen), further supplemented with 1 mM glutamine, 50 units/ml penicillin, and 50 μg/ml streptomycin. The following steps were then performed:
1. Samples of the cultured cortical neurons were removed from the Neurobasal-A based culture medium, at various time points prior to exposure to compound, and placed into “transfection medium” ([…]; as defined by Bading et al (1993) Science 260, 181-186) comprising: 10% modified Minimum Essential Medium (supplied by Invitrogen; product no: 21090022; containing Earles salt, but no L-glutamine), 90% Salt-Glucose-Glycine (SGG) medium: (114 mM NaCl, 0.219% NaHCO3, 5.292 mM KCL, 1 mM MgCl2, 2 mM CaCl2, 10 mM HEPES, 1 mM Glycine, 30 mM glucose, 0.5 mM sodium pyruvate, 0.1% Phenol Red), insulin-transferrin-selenite supplement (supplied by Sigma: 7.5 μg insulin/ml, 7.5 μg transferring/ml and 7.5 ng sodium selenite/ml); with a final osmolarity of 325 mosm/l. All subsequent steps were performed in this TM medium. 2. Samples of neurons are exposed to an NMDAR/PSD-95 inhibitor of the invention (compounds 40, 52-90) at a final concentration of between 0.05-50 μM for a period of between 0.5 to 1.5 hours. […] 3. Each sample of neurons was washed at least one time in TM medium to remove the NMDAR/PSD-95 inhibitor, and placed in TM medium. 4. After various periods of time, the samples of neurons were exposed to NMDA at a concentration of between 10-100 μM for a period of 0.5 to 1.5 hours, preferably 1 hour, after which the samples were again placed in TM medium for 24 hours. 5. LDH in the cell medium was quantified using commercial available kits (e.g. Promega Biotech AB, cat no G1780).

[3] = biological target: T2, PDZ1-2 tandem of PSD-95 (Homo sapiens, UniProt P78352); assay: FP heterologous competition binding assay; conditions: mean ± SEM
T2 construct: PDZ1-2 (residues 61-249) tandem; made in house; host or cells: E. coli BL21-DE3 pLysS
From the text: (§1) Determined IC50 values may be converted to Ki values.^5 Suitable fluorophores include either 5-FAM or Cy5, which may be coupled to a tripeptide (KSG or CSG) linker attached to the N-terminus of the undecapeptide, to give 5-FAM-NR2B, Cy5-NR2B, 5-FAM-CRIPT and Cy5-CRIPT. The 5-FAM fluorophore may be attached to the undecapeptides by coupling with HATU. The Cy5 fluorophore may be conjugated to the undecapeptides by coupling Cy5-maleimide to the cysteine side chain of the tripeptide sequence CSG attached to the N-terminus of the peptide, as detailed in the Methodology section.
(§2) To measure the affinities between non-fluorescent peptides and PDZ domains, heterologous competition bindings assay were performed. This was done by adding increasing concentrations of peptide to a fixed concentration of Cy5-NR2B, 5-FAM-NR2B, Cy5-CRIPT or 5-FAM-CRIPT (50 nM) and PDZ (20 μM for PDZ1, 3 μM for PDZ2 and 1-2 and 5 μM for PDZ3) in the same TBS buffer and conditions as described above. FP values were then fitted to the general equation: Y=Bottom+(Top−Bottom)/[1[…](10̂^X-logIC50)], where X is the logarithmic value of peptide concentration. Hereby the IC50 value was obtained, which is used to calculate the theoretical competitive inhibition constant, Ki.^5
(§3) A convenient and reliable way to examine interactions between peptide analogues and PDZ domains is by using a fluorescence polarization (FP) assay. The three PDZ domains, PDZ1-3, of PSD-95 were expressed individually as set out above, while PDZ1-2 was also expressed as a tandem construct. […] IC50 values were then converted to Ki values.^5

[4] = biological target: T3, PDZ2 of PSD-95 (Homo sapiens, UniProt P78352); assay: FP heterologous competition binding assay; conditions: FP competition; mean ± SEM; NA = no activity/affinity
T3 construct: PDZ2 (residues 155-249); made in house; host or cells: E. coli BL21-DE3 pLysS
From the text: as §1, §2, §3

[5] = biological target: T4, PDZ1 of PSD-95 (Homo sapiens, UniProt P78352); assay: FP heterologous competition binding assay; conditions: FP competition; mean ± SEM; NA = no activity/affinity
T4 construct: PSD-95 PDZ1 (residues 61-151); made in house; host or cells: E. coli BL21-DE3 pLysS
From the text: as §1, §2, §3

[6] = Human blood plasma stability assay; type: in vitro ADME
Description: In this assay, the half-life (T1/2) of a compound in blood plasma is measured in vitro, whereby its susceptibility to degradation by proteases, peptidases and general plasma contents is quantified.
Compounds of interest were dissolved in human blood plasma (270 μl; 3H Biomedical, Sweden, cat no 1300-1-P50) to a concentration of 0.25 mM (30 μL of 2.5 mM) and incubated at 37° C. Aliquots (30 μl) were removed at various time intervals (0, 5, 10, 20, 40, 80, 160, 320, 960, 1280, 2550, 4560 and 7240 min) and quenched with 60 μL trichloroacetic acid (aq., 5%). The aliquots were vortexed, and incubated for at least 15 min, at 4° C. prior to centrifugation at 18,000 g for 2 min and the supernatant was analyzed by RP-HPLC to quantify the remaining compound (absorbance at 218 nm).

Question: What does the source list for `CC[C@H](C)[C@H](NC(=O)CCOCCOCCOCCOCCOCCOCCOCCOCCOCCOCCOCCOCCOCCC(=O)N[C@H](C(=O)N[C@@H](CCC(=O)O)C(=O)N[C@@H](CO)C(=O)N[C@@H](CC(=O)O)C(=O)N[C@H](C(=O)O)C(C)C)[C@@H](C)CC)C(=O)N[C@@H](CCC(=O)O)C(=O)N[C@@H](CO)C(=O)N[C@@H](CC(=O)O)C(=O)N[C@H](C(=O)O)C(C)C` [(IESDV)2PEG12 (74), (IESDV)2PEG12]?
Answer: Ki [1]: ~100 nM; effect on NMDA-mediated excitotoxicity, in words [2]: inhibit neuronal excitotoxicity, as efficiently as the clinical candidate Tat-N2B (3); Ki [3]: ~100 nM; Ki [4]: 3100 ± 130 nM; Ki [5]: 22000 ± 1400 nM; degradation in human blood plasma, in words [6]: no significant degradation could be detected over a time period of 6 days; half-life at […] ([6]; human, plasma, Blood plasma half life (T1/2)): > 133 h
